Counter-ions that a name gives are not always drawn. Like-named read-outs stand apart in the source and are kept apart here.
Columns and labels:
wild-type HIV-1 protease = wild-type HIV-1 protease (Human immunodeficiency virus type 1 group M subtype B, UniProt P04585); assay: Assay for inhibition of microbial expressed HIV protease; assay type: biochemical
In short: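 Inhibition taken from HPLC (C18) product peak areas after phosphoric acid quench. Reaction: 440 micromolar Val-Ser-Gln-Asn-(betanapthyl)Ala-Pro-Ile-Val peptide, 5 pM E. coli-made protease, 1 h at 30° C, following 30 min room-temperature inhibitor preincubation in pH 5.5 acetate/NaCl/BSA buffer.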

[1] = test system: acute HIV infection of T-lymphoid cells; assay: Assay for inhibition of HIV replication (spread assay); assay type: cell-based, HIV-1; conditions: Human immunodeficiency virus 1, T-lymphoid; read-out: Spread - IC95
Method: • Assay for Inhibition of HIV Replication
Assays for the inhibition of acute HIV infection of T-lymphoid cells were conducted in accordance with Vacca, J. P. et al., Proc. Natl. Acad. Sci. USA 1994, 91: 4096.

[2] = wild-type HIV-1 protease expressed in E. coli, peptide substrate, pH 5.5, read-out: Enzyme Inhibition - IC50

SMILES	IC50 (wild-type HIV-1 protease; [2])	IC95 [1]	IC50 (wild-type HIV-1 protease)
COC(=O)NC(Cc1cccc(Cl)c1Cl)C(=O)N[C@@H](C)CCC[C@@H](CO)N(C(C)C)S(=O)(=O)c1ccc(CO)cc1 (stereo partly drawn) [Example J45, 2,3-dichloro-N-{(1S,5S)-6-hydroxy-5-[{[4-(hydroxymethyl)phenyl]sulfonyl}(isopropyl)amino]-1-methylhexyl}-Nα-(methoxycarbonyl)phenylalaninamide]	0.041 nM	80 nM	
COC(=O)N[C@H](C(=O)N[C@@H](C)CCC[C@@H](CO)N(CCCF)S(=O)(=O)c1ccc(CO)cc1)C(c1ccccc1)c1ccccc1 [Example G14, N-[(1S,5S)-5-((3-fluoropropyl){[4-(hydroxymethyl)phenyl]sulfonyl}amino)-6-hydroxy-1-methythexyl]-Nα-(methoxycarbonyl)-β-phenyl-L-phenylalaninamide]	0.01 nM	16 nM	
CC(C)CCN([C@@H](CCCCNC(=O)[C@@H](N)C(c1ccccc1)c1ccccc1)C(C)O)S(=O)(=O)c1ccc(N)cc1 (mixture of isomers) [Example A1, (2S)-2-amino-N-{5-[[(4-aminophenyl)sulfonyl]-(3-methylbutyl)amino]-6-hydroxyheptyl}-3,3-diphenylpropanamide]	0.43 nM	140 nM	
COC(=O)N[C@H](C(=O)N[C@H](CCC[C@@H](CO)N(C)S(=O)(=O)c1ccc(CO)cc1)C1CC1)C(c1ccccc1)c1ccccc1 [Example I6, N-{(1R,5S)-1-cyclopropyl-6-hydroxy-5-[{[4-(hydroxymethyl)phenyl]sulfonyl}(methyl)amino]hexyl}-Nα-(methoxycarbonyl)-β-phenyl-L-phenylalaninamide]	1.03 nM	187 nM	
CC[C@@H](CCC[C@@H](CO)N(C(C)C)S(=O)(=O)c1ccc(CO)cc1)NC(=O)[C@@H](NC)C(c1ccccc1)c1ccccc1 [Example J35, N-{(1S,5S)-1-ethyl-6-hydroxy-5-[{[4-(hydroxymethyl)phenyl]sulfonyl}(isopropyl)amino]hexyl}-Nα-methyl-β-phenyl-L-phenylalaninamide hydrochloride]		25 nM	0.569 nM
COC(=O)N[C@H](C(=O)NC(CO)CCCC(CO)N(CCC(C)C)S(=O)(=O)c1ccc(N)cc1)C(c1ccccc1)c1ccccc1 (single isomer, unassigned) [Example M1-7A, N-[(1R or 1S,5R or 5S)-5-[[(4-aminophenyl)sulfonyl](3-methylbutyl)amino]-6-hydroxy-1-(hydroxymethyl)hexyl]-Nα-(methoxycarbonyl)-β-phenyl-L-phenylalaninamide]	0.349 nM	302 nM	
COC(=O)N[C@H](C(=O)N[C@H](CCC[C@@H](CO)N(CCC(C)C)S(=O)(=O)c1ccc(CO)c(F)c1)C1CC1)C(c1ccc(F)cc1)c1ccc(F)cc1 [Example E2, N-{(1R,5S)-1-cyclopropyl-5-[{[3-fluoro-4-(hydroxymethyl)phenyl]sulfonyl}(3-methylbutyl)amino]-6-hydroxyhexyl}-4-fluoro-β-(4-fluorophenyl)-Nα-(methoxycarbonyl)-L-phenylalaninamide]	0.017 nM	39 nM	
COC(=O)N[C@H](C(=O)NC(C)(C)CCC[C@@H](CO)N(CCCF)S(=O)(=O)c1ccc(N)cc1)C(c1ccccc1)c1ccccc1 [Example L7, N-{(5S)-5-[[(4-aminophenyl)sulfonyl](3-fluoropropyl)amino]-6-hydroxy-1,1-dimethylhexyl}-Nα-(methoxycarbonyl)-β-phenyl-L-phenylalaninamide]	0.062 nM	178 nM	
CC[C@@H](CCC[C@@H](CO)N(CCC(C)C)S(=O)(=O)c1ccc(N)cc1)NC(=O)[C@@]1(NC(=O)OC(C)(C)C)C[C@@H]1c1ccccc1 [Example F9, tert-butyl {(1R,2R)-1-[({(1S,5S)-5-[[(4-aminophenyl)sulfonyl](3-methylbutyl)amino]-1-ethyl-6-hydroxyhexyl}amino)carbonyl]-2-phenylcyclopropyl}carbamate]	0.064 nM	76 nM	
CCCN([C@H](CO)CCC[C@H](CC)NC(=O)[C@H](Cc1ccccc1Cl)NC(=O)OC)S(=O)(=O)c1ccc(N)cc1 [Example F8, N-{(1S,5S)-5-[[(4-aminophenyl)sulfonyl](propyl)amino]-1-ethyl-6-hydroxyhexyl}-2-chloro-Nα-(methoxycarbonyl)-L-phenylalaninamide]	1.45 nM	249 nM	
CCCN([C@H](CO)CCC[C@H](CC)NC(=O)[C@@H](NC(=O)OC)C(c1ccccc1)c1ccccc1)S(=O)(=O)c1ccc(CO)cc1 [Example J34, N-{(1S,5S)-1-ethyl-6-hydroxy-5-[{[4-(hydroxymethyl)phenyl]sulfonyl}(propyl)amino]hexyl}-Nα-(methoxycarbonyl)-β-phenyl-L-phenylalaninamide]	0.041 nM	20 nM	
COC(=O)N[C@H](C(=O)NC1(CCC[C@@H](CO)N(CCC(C)C)S(=O)(=O)c2ccc(N)cc2)CCCC1)C(c1ccccc1)c1ccccc1 [Example L1, N-(1-{(4S)-4-[[(4-aminophenyl)sulfonyl](3-methylbutyl)amino]-5-hydroxypentyl}cyclopentyl)-Nα-(methoxycarbonyl)-β-phenyl-L-phenylalaninamide]	0.37 nM	274 nM	
COC(=O)N[C@H](C(=O)N[C@H](CCC[C@@H](CO)N(CCC(C)C)S(=O)(=O)c1ccc(CO)cc1)C(F)(F)C(F)(F)F)C(c1ccccc1)c1ccccc1 [Example J12, N-[(1R,5S)-6-hydroxy-5-[{[4-(hydroxymethyl)phenyl]sulfonyl}(3-methylbutyl)amino]-1-(pentafluoroethyl)hexyl]-Nα-(methoxycarbonyl)-β-phenyl-L-phenylalaninamide]	0.036 nM	43 nM	
COC(=O)N[C@H](C(=O)N[C@H](CCC[C@@H](CO)N(CC(C)C)S(=O)(=O)c1ccc(CO)cc1)C(F)(F)F)C(c1ccccc1)c1ccccc1 [Example J30, N-[(1R,5S)-6-hydroxy-5-[{[4-(hydroxymethyl)phenyl]sulfonyl}(isobutyl)amino]-1-(trifluoromethyl)hexyl]-Nα-(methoxycarbonyl)-β-phenyl-L-phenylalaninamide]	0.01 nM	21 nM	
COC(=O)N[C@@H](Cc1ccccc1Cl)C(=O)N[C@@H](C)CCC[C@@H](CO)N(C(C)C)S(=O)(=O)c1ccc(N)cc1 [Example G11, N-{(1S,5S)-5-[[(4-aminophenyl)sulfonyl](isopropyl)amino]-6-hydroxy-1-methylhexyl}-2-chloro-Nα-(methoxycarbonyl)-L-phenylalaninamide]	1.3 nM	93 nM	
COC(=O)N[C@H](C(=O)N[C@H](CCC[C@@H](CO)N(CC(C)C)S(=O)(=O)c1ccc(N)cc1)C(C)C)C(c1ccccc1)c1ccccc1 [Example D14, N-{(1R,5S)-5-[[(4-aminophenyl)sulfonyl](isobutyl)amino]-6-hydroxy-1-isopropylhexyl}-Nα-(methoxycarbonyl)-β-phenyl-L-phenylalaninamide]	0.519 nM	95 nM	
COC(=O)N[C@H](C(=O)NC(C)(C)CCC[C@@H](CO)N(CCC(C)C)S(=O)(=O)c1ccc(N)cc1)C(c1ccccc1)c1ccccc1 [Example L4, N-{(5S)-5-[[(4-aminophenyl)sulfonyl](3-methylbutyl)amino]-6-hydroxy-1,1-dimethylhexyl}-Nα-(methoxycarbonyl)-β-phenyl-L-phenylalaninamide]	0.01 nM	41 nM	
CC[C@@H](CCC[C@@H](CO)N(CC(C)C)S(=O)(=O)c1ccc(N)cc1)NC(=O)[C@@H](NC(=O)OC)C(c1ccccc1)c1ccccc1 [Example D11, N-{(1S,5S)-5-[[(4-aminophenyl)sulfonyl](isobutyl)amino]-1-ethyl-6-hydroxyhexyl}-Nα-(methoxycarbonyl)-β-phenyl-L-phenylalaninamide]	0.109 nM	18 nM	
COC(=O)N[C@@H](Cc1ccccc1Br)C(=O)N[C@@H](C)CCC[C@@H](CO)N(C(C)C)S(=O)(=O)c1ccc(CO)cc1 [Example G13, 2-bromo-N-{(1S,5S)-6-hydroxy-5-[{[4-(hydroxymethyl)phenyl]sulfonyl}(isopropyl)amino]-1-methylhexyl}-Nα-(methoxycarbonyl)-L-phenylalaninamide]	0.291 nM	71 nM	
C=C[C@@H](CCC[C@@H](CO)N(CCC(C)C)S(=O)(=O)c1ccc(CO)cc1)NC(=O)[C@@H](NC(=O)OC)C(c1ccccc1)c1ccccc1 [Example J10, N-{(1R,5S)-6-hydroxy-5-[{[4-(hydroxymethyl)phenyl]sulfonyl}(3-methylbutyl)amino]-1-vinylhexyl}-Nα-(methoxycarbonyl)-β-phenyl-L-phenylalaninamide]	0.005 nM	4 nM	
CC[C@@H](CCC[C@@H](CO)N(CC(C)C)S(=O)(=O)c1ccc(CO)cc1)NC(=O)[C@@H](NC(=O)OC)C(c1ccccc1)c1ccccc1 [Example J19, N-{(1S,5S)-1-ethyl-6-hydroxy-5-[{[4-(hydroxymethyl)phenyl]sulfonyl}(isobutyl)amino]hexyl]-Nα-(methoxycarbonyl)-β-phenyl-L-phenylalaninamide]	0.034 nM	11 nM	
COC(=O)N[C@H](C(=O)N[C@@H](CCC[C@@H](CO)N(CCC(C)C)S(=O)(=O)c1ccc(CO)cc1)C(F)(F)F)C(c1ccccc1)c1ccccc1 [Example J7, N-[(1S,5S)-6-hydroxy-5-[{[4-(hydroxymethyl)phenyl]sulfonyl}(3-methylbutyl)amino]-1-(trifluoromethyl)hexyl]-Nα-(methoxycarbonyl)-β-phenyl-L-phenylalaninamide]	0.623 nM	359 nM	

Source: patent US20100093811A1 (priority 2007, published 2010)
